According to paper PMC3989164, “Multi-Kinase Inhibitor C1 Triggers Mitotic Catastrophe of Glioma Stem Cells Mainly through MELK Kinase Inhibition” (PLoS ONE, 2014):

Target: T1, maternal embryonic leucine-zipper kinase (MELK) (Homo sapiens, UniProt Q14680)
T1 construct: recombinant MELK protein
Test: in vitro kinase assay with recombinant MELK, ten-dose curve
Type: biochemical

T1 sequence (Q14680 whole entry): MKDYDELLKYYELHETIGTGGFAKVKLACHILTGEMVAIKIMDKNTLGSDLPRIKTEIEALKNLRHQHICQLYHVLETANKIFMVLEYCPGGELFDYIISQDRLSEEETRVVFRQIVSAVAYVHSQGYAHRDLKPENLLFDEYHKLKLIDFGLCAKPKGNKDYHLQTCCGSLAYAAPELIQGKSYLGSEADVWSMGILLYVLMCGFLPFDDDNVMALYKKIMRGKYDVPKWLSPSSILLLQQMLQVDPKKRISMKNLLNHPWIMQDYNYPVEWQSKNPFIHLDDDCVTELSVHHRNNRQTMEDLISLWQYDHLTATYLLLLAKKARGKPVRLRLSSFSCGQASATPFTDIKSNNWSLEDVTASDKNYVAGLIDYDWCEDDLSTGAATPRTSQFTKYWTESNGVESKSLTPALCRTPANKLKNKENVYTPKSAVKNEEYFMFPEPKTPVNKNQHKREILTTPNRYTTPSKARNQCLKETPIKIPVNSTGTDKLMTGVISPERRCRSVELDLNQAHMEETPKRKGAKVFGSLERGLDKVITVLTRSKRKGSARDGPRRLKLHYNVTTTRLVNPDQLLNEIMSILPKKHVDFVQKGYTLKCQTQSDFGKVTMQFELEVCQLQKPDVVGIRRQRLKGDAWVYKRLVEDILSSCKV

IC50: 42 nM
Structure (SMILES): CCc1c[nH]c(=O)c2c1[nH]c1ccc3cc(OC)ccc3c12 [C1, Compound 1]
